Measured values taken from patent US20090087916A1, “Assay method for identifying drug candidate” (AnGesMG, Inc., priority 2004, published 2009).

Legend:
Aβ (1-42) fibril = Aβ (1-42) fibril (Homo sapiens, UniProt P05067); assay: in vitro sink-like Aβ assay: Aβ dissolved from fibril in presence of compound, Aβ ELISA of supernatant; type: biochemical; settings: Aβ (1-42) fibril pellets, PBS containing compound, 37° C. for one day, supernatant by Aβ ELISA; control (PBS without compound) = 1
Method: Sandwich ELISA for Aβ (1-40) and Aβ (1-42) was performed using an Aβ (1-40) ELISA kit and Aβ (1-42) ELISA kit (Biosoure, IBL, Signet Laboratories and the like). […] The peptide was incubated for several days at 37° C. until fibrillization was completed. After centrifugation at 22° C. (15,000×g, 10 min), the supernatant was removed. The obtained pellets were gradually and carefully washed 3 times with PBS. Fresh PBS (20 μl) was carefully and gradually added to the pellets. The sample was incubated at 37° C. for one day. After centrifugation (15,000×g, 10 min) at 22° C., the supernatant was removed. […] The sample was incubated at 37° C. for one day.

tau = settings: Taniguchi et al., J Biol Chem 2005; cited from earlier work
[1] = system: protease-resistant protein (PrP-res); settings: cited from earlier work
Aβ = settings: in vitro; Ono, Biochim Biophys Acta 2004; cited from earlier work

Aβ (1-42) fibril, sequence (P05067 672-713): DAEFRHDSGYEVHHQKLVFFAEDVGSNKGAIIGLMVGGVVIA

Molecule | average (ratio of Aβ dissolved from fibril when the control is 1) (Aβ (1-42) fibril) | inhibition of tau filament formation (tau) | inhibition of formation of protease-resistant protein (PrP-res) [1] | inhibitory action on the formation or elongation of Aβ (Aβ)
ferric dehydroporphyrin IX | 1.4124 | inhibits tau filament formation | inhibit in vitro the formation of a protease-resistant protein (PrP-res) | 
O=C(OC[C@H]1O[C@@H](OC(=O)c2cc(O)c(O)c(OC(=O)c3cc(O)c(O)c(O)c3)c2)[C@H](OC(=O)c2cc(O)c(O)c(OC(=O)c3cc(O)c(O)c(O)c3)c2)[C@@H](OC(=O)c2cc(O)c(O)c(OC(=O)c3cc(O)c(O)c(O)c3)c2)[C@@H]1OC(=O)c1cc(O)c(O)c(OC(=O)c2cc(O)c(O)c(O)c2)c1)c1cc(O)c(O)c(OC(=O)c2cc(O)c(O)c(O)c2)c1 [tannic acid] | 1.3969 |  |  | in vitro inhibitory action on the formation or elongation of Aβ
CNc1ccc2nc3ccc(=[N+](C)C)cc-3sc2c1.[Cl-] [azure B] | 2.1701 | inhibit tau filament formation |  | 
CCN(CCO)c1ccc(/N=N/c2sc3cc(OC)ccc3[n+]2C)cc1 [basic blue 41] | 2.299 |  |  | 
O=c1c(O)c(-c2cc(O)c(O)c(O)c2)oc2cc(O)cc(O)c12 [myricetin] | 1.3196 |  |  | in vitro inhibitory action on the formation or elongation of Aβ
COc1cc(/C=C/C(=O)CC(=O)/C=C/c2ccc(O)c(OC)c2)ccc1O [curcumin] | 2.4691 |  |  | 
